Usually IC50 stands for the concentration that inhibits the measured activity by half. Lower therefore signals greater potency.

Assay type in all cases: cell-based
Experiment [1] deals with lung (A549). The experiment can be described thus: Cell viability (ATP luminescence) IC50 determination, A549. As to conditions: Homo sapiens, A549 cells, 72 hours incubation, vs DMSO vehicle control. On the procedure: (§1) In yet another aspect of the instant invention, the IC50 or the half maximal inhibitory concentration of the candidate compounds were determined to assess drug potency and potential dosing regimens for in vivo use. One of ordinary skill in the art is readily able to ascertain such information using commonly known methodologies. As it has been well described in the art, IC50 represents and measures how much of a particular substance/molecule is needed to inhibit some biological process by 50%. In the instant case, the IC50 of the candidate compounds were determined as the concentration that led to a response of 50% compared to the vehicle control cells.
(§2) The cell lines listed are maintained at approximately 5% CO2, 37° C., 95% relative humidity in the media appropriate for that cell line. The cells are sub-cultured every two to three days and plated in clear bottom 96-well plates at a density of 1×10^4 cells/well and incubated at ca. 5% CO2, 37° C. overnight prior to initiation of the assay. To begin cell viability assays, the media in the cell plate (100 μL) is replaced with fresh media (100 μL). The test articles are serially diluted […] in fresh media in duplicate and added to the cells (100 μL) at final sample concentrations of 0.46, 1.37, 4.12, 12.35, 37.04, 111.1, 333.3 and 1000 μM (≤1% DMSO) in a total volume of 200 μL. Wells containing no cells and wells containing cells lysed with 0.1% Triton-X are used for baseline controls. Tamoxifen is used as a known control for each assay and DMSO only will be run as vehicle control. The samples are incubated at ca. 37° C. in humidified 5% CO2 atmosphere for 72 hours. The plate is monitored once a day during the incubation period, paying special attention to the level of confluence. If the cells approach confluence prior to the end of the 72 hour incubation period, the experiment is terminated and cell viability measured as described below.
(§3) Cell viability is determined using a commercially available kit to determine ATP levels by luminescence. Briefly, the cell plate has the media removed and replaced with 100 μL of fresh media, and the buffer and lyophilized substrate are equilibrated to room temperature. The buffer is used to reconstitute the substrate just prior to addition to the wells of the cell plate (100 μL per well). The plate is placed into the Infinite M200 plate reader, allowed to shake for 10 minutes followed by a 10 minute wait period. The plate is then read using an integration time of 0.5 sec with no attenuation.
(§4) The mean baseline controls (wells with Triton X-100 or no cells) are subtracted from the total luminescence to give the net luminescence for that well. This total is compared to the control of DMSO only. An IC50 is calculated as the concentration that led to a response of 50% compared to the vehicle control cells.

Experiment [2] relates to ovary (Ovcar-3). The experiment can be described thus: Cell viability (ATP luminescence) IC50 determination, Ovcar-3. As to conditions: Homo sapiens, Ovcar-3 cells, 72 hours incubation, vs DMSO vehicle control. As for the experimental part:
as §1, §2, §3, §4

In experiment [3] the test system is Pancreas (Capan-1). Kind of experiment: Cell viability (ATP luminescence) IC50 determination, Capan-1. As to conditions: Homo sapiens, Capan-1 cells, 72 hours incubation, vs DMSO vehicle control. On the procedure: as §1, §2, §3, §4
Experiment [4] concerns cells lines derived from breast, lung, colon, prostate, endometrial and ovarian cancers. The experiment can be described thus: In vitro studies of tumor cell growth inhibition in cancer cell lines. Conditions: CYP19 positive (MDA-MB-213 and SK-OV-3) vs CYP19 negative (MCF-7 and NIH:OVCAR-3), where it is reduced.

For `COCC[C@@H]1C[C@@H]2[C@H](CC[C@]3(C)C(O)CC[C@@H]23)c2ccc(O)cc21` (stereo partly drawn) [Compound 19, (6S,8R,9S,13S,14S)-6-(2-methoxyethyl)-13-methyl-7,8,9,11,12,13,14,15,16,17-decahydro-6H-cyclopenta[a]phenanthrene-3,17-diol], the values for the IC50 in experiment [1], in experiment [2] and in experiment [3] were 80 µM, 96 µM and 32 µM, respectively.
Consider `CCOCCCCC[C@@H]1C[C@@H]2[C@H](CC[C@]3(C)C(O)CC[C@@H]23)c2ccc(O)cc21` (stereo partly drawn) [Compound 31, (6R,8R,9S,13S,14S)-13-methyl-6-(5-ethoxypentyl)-7,8,9,11,12,13,14,15,16,17-decahydro-6H-cyclopenta[a]phenanthrene-3,17-diol], for which the IC50 came out at 7 µM in experiment [1], 28 µM in experiment [2] and 15 µM in experiment [3].
For `COC[C@H]1C[C@@H]2[C@H](CC[C@]3(C)C(O)CC[C@@H]23)c2ccc(O)cc21` (stereo partly drawn) [Compound 3, (6S,8R,9S,13S,14S)-6-(methoxymethyl)-13-methyl-7,8,9,11,12,13,14,15,16,17-decahydro-6H-cyclopenta[a]phenanthrene-3,17-diol], in that order: 84 µM, 94 µM and 168 µM.
For `CO[C@@H]1C[C@@H]2[C@H](CC[C@]3(C)C(O)CC[C@@H]23)c2ccc(O)cc21` (stereo partly drawn) [Compound 18, (6R,8R,9S,13S,14S)-6-methoxy-13-methyl-7,8,9,11,12,13,14,15,16,17-decahydro-6H-cyclopenta[a]phenanthrene-3,17-diol], in that order: 139 µM, 207 µM and 192 µM.
As to `CCC(CCCCC[C@@H]1C[C@@H]2[C@H](CC[C@]3(C)C(O)CC[C@@H]23)c2ccc(O)cc21)OC` (stereo partly drawn) [Compound 22, (6R,8R,9S,13S,14S)-6-(6-methoxyoctyl)-13-methyl-7,8,9,11,12,13,14,15,16,17-decahydro-6H-cyclopenta[a]phenanthrene-3,17-diol], the values for the IC50 in experiment [1], in experiment [2] and in experiment [3] were 13 µM, 20 µM and 22 µM, respectively.
With `COC[C@@H]1C[C@@H]2[C@H](CC[C@]3(C)C(=O)CC[C@@H]23)[C@@]2(C)C=CC(=O)C=C12` [Compound 24, (6R,8R,9S,10R,13S,14S)-6-(methoxymethyl)-10,13-dimethyl-7,8,9,10,11,12,13,14,15,16-decahydro-3H-cyclopenta[a]phenanthrene-3,17(6H)-dione], the “in vitro studies of tumor cell growth, by CYP19 status of the cell line” value in experiment [4] is recorded as “highest in cell lines that are CYP19 positive”.
Consider `C[C@]12CC[C@@H]3c4ccc(O)cc4[C@H](CON)C[C@H]3[C@@H]1CCC2O` (stereo partly drawn) [Compound 10, (6R,8R,9S,13S,14S)-6-((aminooxy)methyl)-13-methyl-7,8,9,11,12,13,14,15,16,17-decahydro-6H-cyclopenta[a]phenanthrene-3,17-diol], for which the IC50 in experiment [1] came to 170 µM; in experiment [2], 317 µM; in experiment [3] it was 277 µM.
For `CCCCCCCCCCCCCCCCCC(=O)OC1CC[C@H]2[C@@H]3C[C@@H](COC)c4cc(O)ccc4[C@H]3CC[C@]12C` (stereo partly drawn) [Compound 23, (6R,8R,9S,13S,14S)-3-hydroxy-6-(methoxymethyl)-13-methyl-7,8,9,11,12,13,14,15,16,17-decahydro-6H-cyclopenta[a]phenanthren-17-yl stearate], in that order: over 1000 µM, over 1000 µM and 775 µM.
Turning to `COCCCC[C@@H]1C[C@@H]2[C@H](CC[C@]3(C)C(O)CC[C@@H]23)c2ccc(O)cc21` (stereo partly drawn) [Compound 20, (6R,8R,9S,13S,14S)-6-(4-methoxybutyl)-13-methyl-7,8,9,11,12,13,14,15,16,17-decahydro-6H-cyclopenta[a]phenanthrene-3,17-diol], the IC50 in experiment [1] stood at 34 µM; in experiment [2] it was 60 µM; in experiment [3], 16 µM.
For `COCCCCCC[C@@H]1C[C@@H]2[C@H](CC[C@]3(C)C(O)CC[C@@H]23)c2ccc(O)cc21` (stereo partly drawn) [Compound 21, (6R,8R,9S,13S,14S)-6-(6-methoxyhexyl)-13-methyl-7,8,9,11,12,13,14,15,16,17-decahydro-6H-cyclopenta[a]phenanthrene-3,17-diol], in that order: 17 µM, 24 µM and 23 µM.
As to `COC[C@@H]1C[C@@H]2[C@H](CC[C@]3(C)C(O)CC[C@@H]23)[C@@]2(C)CCC(O)CC12` (stereo partly drawn) [Compound 9, (6R,8R,9S,10R,13S,14S)-6-(methoxymethyl)-10,13-dimethylhexadecahydro-1H-cyclopenta[a]phenanthrene-3,17-diol], the IC50 in experiment [1], in experiment [2] and in experiment [3] was over 1000 µM throughout.
On to `COC[C@@H]1C[C@@H]2[C@H](CC[C@]3(C)C(O)CC[C@@H]23)c2ccc(O)cc21` (stereo partly drawn) [Compound 4, (6R,8R,9S,13S,14S)-6-(methoxymethyl)-13-methyl-7,8,9,11,12,13,14,15,16,17-decahydro-6H-cyclopenta[a]phenanthrene-3,17-diol], for which the 50% inhibitory concentration (IC50) turned out to be 70 µM in experiment [1], 100 µM in experiment [2] and 32 µM in experiment [3].
Turning to `CCCOCCCC[C@@H]1C[C@@H]2[C@H](CC[C@]3(C)C(O)CC[C@@H]23)c2ccc(O)cc21` (stereo partly drawn) [Compound 30, (6R,8R,9S,13S,14S)-13-methyl-6-(4-propoxybutyl)-7,8,9,11,12,13,14,15,16,17-decahydro-6H-cyclopenta[a]phenanthrene-3,17-diol], the IC50 in experiment [1] came out at 5 µM; in experiment [2], 29 µM; in experiment [3], 10 µM.
Consider `C[C@]12CC[C@@H]3c4ccc(O)cc4[C@H](CO)C[C@H]3[C@@H]1CCC2O` (stereo partly drawn) [Compound 8, (6R,8R,9S,13S,14S)-6-(hydroxymethyl)-13-methyl-7,8,9,11,12,13,14,15,16,17-decahydro-6H-cyclopenta[a]phenanthrene-3,17-diol], for which the concentration for half-maximal inhibition (IC50) in experiment [1] worked out at 184 µM; in experiment [2], 221 µM; in experiment [3] it was 212 µM.
